This passage reports Activity, ΔTm and Tm results from ChEMBL document CHEMBL4118279, “1,3-Di(quinolin-2-yl)guanidine binds to GGCCCC hexanucleotide repeat DNA in C9ORF72” (Bioorg Med Chem Lett, 2018).

Broadly, the ΔTm is the shift of the melting midpoint relative to a reference. The term Tm denotes the temperature at the midpoint of the melting transition.

Activity calls are given as the source filed them. The calls are words filed in the database; no cut-off is given here.

Test [1] can be described thus: Binding affinity to (GGCCCC)9 motif-containing duplex DNA (unknown origin) assessed as formation of CD bands at 20 uM at 245 to 282 nm by CD spectrometry.
A short description of test [2]: Binding affinity to GGTCCC/GGCTCC motif-containing duplex DNA (unknown origin) assessed as change in melting temperature at 20 uM by UV-spectrophotometric method.
Test [3] is described as follows: Binding affinity to GGCCCC/GGCCCC motif-containing duplex DNA (unknown origin) at 40 uM by ESI-TOF-MS analysis.
The nature of test [4]: Binding affinity to GGGGCC/GGGGCC motif-containing duplex DNA (unknown origin) assessed as change in melting temperature at 20 uM by UV-spectrophotometric method.
Test [5] is described as follows: Binding affinity to GGCTCC/GGCCCC motif-containing duplex DNA (unknown origin) assessed as change in melting temperature at 20 uM by UV-spectrophotometric method.
The nature of test [6]: Binding affinity to GGCCCC/GGCCCC motif-containing duplex DNA (unknown origin) at 80 uM by ESI-TOF-MS analysis.
The nature of test [7]: Binding affinity to GGCCCC/GGCCCC motif-containing duplex DNA (unknown origin) assessed as change in melting temperature at 20 uM by UV-spectrophotometric method.
Test [8] is described as follows: Binding affinity to GGAACC/GGAACC motif-containing duplex DNA (unknown origin) assessed as change in melting temperature at 20 uM by UV-spectrophotometric method.
Test [9] can be described thus: Binding affinity to GGCCC/GGCCC motif-containing duplex DNA (unknown origin) assessed as change in melting temperature at 20 uM by UV-spectrophotometric method.
Test [10] in a line: Binding affinity to (GGCCCC)9 motif-containing duplex DNA (unknown origin) assessed as melting temperature at 20 uM by UV-spectrophotometric method.
A short description of test [11]: Binding affinity to GGTCCC/GGCCCC motif-containing duplex DNA (unknown origin) assessed as formation of CD bands at 20 uM at 300 to 345 nm by CD spectrometry.
Test [12] can be described thus: Binding affinity to GGCCCC/GGCCCC motif-containing duplex DNA (unknown origin) assessed as formation of CD bands at 20 uM at 310 to 345 nm by CD spectrometry.
Test [13] is described as follows: Binding affinity to GGTCCC/GGTCCC motif-containing duplex DNA (unknown origin) assessed as change in melting temperature at 20 uM by UV-spectrophotometric method.
Test [14] is described as follows: Binding affinity to GGTTCC/GGTTCC motif-containing duplex DNA (unknown origin) assessed as change in melting temperature at 20 uM by UV-spectrophotometric method.
Test [15] in a line: Binding affinity to GGTCCC/GGCCCC motif-containing duplex DNA (unknown origin) assessed as change in melting temperature at 20 uM by UV-spectrophotometric method.
The nature of test [16]: Binding affinity to GGTCCC/GGTCCC motif-containing duplex DNA (unknown origin) assessed as formation of CD bands at 20 uM at 310 to 345 nm by CD spectrometry.
Test [17] is described as follows: Binding affinity to GGTTCC/GGCCCC motif-containing duplex DNA (unknown origin) assessed as change in melting temperature at 20 uM by UV-spectrophotometric method.
A short description of test [18]: Binding affinity to GGCCCC/GGGGCC motif-containing duplex DNA (unknown origin) assessed as change in melting temperature at 20 uM by UV-spectrophotometric method.
Test [19] in a line: Binding affinity to GGCCCC/GGGGCC motif-containing duplex DNA (unknown origin) at 40 uM by ESI-TOF-MS analysis.
Test [20] is described as follows: Binding affinity to GGCTCC/GGCTCC motif-containing duplex DNA (unknown origin) assessed as change in melting temperature at 20 uM by UV-spectrophotometric method.
Test [21] is described as follows: Binding affinity to (GGCCCC)5 motif-containing duplex DNA (unknown origin) at 80 uM by ESI-TOF-MS analysis.
Test [22] in a line: Binding affinity to GGCTCC/GGCCCC motif-containing duplex DNA (unknown origin) assessed as formation of CD bands at 20 uM at 310 to 345 nm by CD spectrometry.

In the case of `N=C(Nc1ccc2ccccc2n1)Nc1ccc2ccccc2n1`, the result in test [1], in test [3], in [6], in test [11], in test [12] and in test [21] was Active. In addition, the shift in melting temperature (ΔTm) in test [2] amounted to 8.9 °C; in [4], 0.7 °C; in test [5], 11.2 °C; in test [7] it was 19.6 °C; in test [8], 2.1 °C; in [9], 7.8 °C. In addition, the thermal shift (ΔTm) was 11.5 °C in test [13]; -0.1 °C in test [14]; 14.4 °C in test [15]; 8.6 °C in [17]; -1 °C in test [18]; 8.3 °C in test [20]. Also, the melting temperature (Tm) in [10] is 67.8 °C. The outcome in [16], in test [19] and in [22] was inactive.

For `N=C(N)Nc1ccc2ccccc2n1`, the ΔTm in test [4] was -0.7 °C; in [7] it was 3.4 °C; in test [8], -0.5 °C; in test [14], -1.3 °C; in [18] it was -2.8 °C. The outcome in test [12] was Active.
